Data taken from PubChem BioAssay AID256 (DTP/NCI, 2004).
“And” between values parts separate entries of the source, which are not always exact repeats. Identical values can stand only once. Inconclusive results and toxic doses are left out.

Tested on: CD2F1 mice, L1210 leukemia ip, survival T/C
Test: NCI In Vivo Anticancer Drug Screen. Data for tumor model L1210 Leukemia (intraperitoneal) in CD2F1 (CDF1) mice
Settings: higher = longer survival
In short: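 Read-out first: treated-group measurement over vehicle-control measurement, expressed as a ratio. Animals bore a transplanted tumor line and were dosed with compound or vehicle.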

[1] = endpoint: mean survival time, dose: 50.0 mg/kg/injection, schedule: Q01DX009 (ip), vehicle: saline with Tween-80
[2] = endpoint: mean survival time, dose: 100.0 mg/kg/injection, schedule: Q01DX009 (ip), vehicle: saline with Tween-80
[3] = endpoint: mean survival time, dose: 75.0 mg/kg/injection, schedule: Q01DX001 (ip), vehicle: saline
[4] = endpoint: mean survival time, dose: 150.0 mg/kg/injection, schedule: Q01DX001 (ip), vehicle: saline
[5] = endpoint: mean survival time, dose: 100.0 mg/kg/injection, schedule: Q04DX003 (ip), vehicle: saline with Tween-80
[6] = endpoint: mean survival time, dose: 200.0 mg/kg/injection, schedule: Q04DX003 (ip), vehicle: saline with Tween-80
[7] = endpoint: mean survival time, dose: 400.0 mg/kg/injection, schedule: Q04DX003 (ip), vehicle: saline with Tween-80
[8] = endpoint: mean survival time, dose: 200.0 mg/kg/injection, schedule: Q01DX009 (ip), vehicle: saline with Tween-80
[9] = endpoint: mean survival time, dose: 25.0 mg/kg/injection, schedule: Q01DX009 (ip), vehicle: saline with Tween-80
[10] = endpoint: mean survival time, dose: 100.0 mg/kg/injection, schedule: Q01DX001 (ip), vehicle: saline
[11] = endpoint: mean survival time, dose: 200.0 mg/kg/injection, schedule: Q01DX001 (ip), vehicle: saline
[12] = endpoint: mean survival time, dose: 400.0 mg/kg/injection, schedule: Q01DX001 (ip), vehicle: saline

## CCN(CCN(C)C(C)(C)C(C)(C)C)C(=O)C(O)(c1ccccc1)c1ccccc1
[1]
  T/C: 103 % of control
[2]
  T/C: 110 % of control

## [Cl][Hg][c]1ccco1
endpoint: mean survival time, dose: 1.25 mg/kg/injection, schedule: Q01DX001 (ip), vehicle: Klucel (hydroxypropylcellulose) (HPC)
  T/C: 100 % of control
endpoint: mean survival time, dose: 2.5 mg/kg/injection, schedule: Q01DX001 (ip), vehicle: Klucel (hydroxypropylcellulose) (HPC)
  T/C: 96 % of control
endpoint: mean survival time, dose: 5.0 mg/kg/injection, schedule: Q01DX001 (ip), vehicle: Klucel (hydroxypropylcellulose) (HPC)
  T/C: 97 % of control

## COc1cc2c(cc1O)C(C)NCC2 (stereo not given)
[3]
  T/C: 109 % of control
[4]
  T/C: 101 % of control

## O=c1[nH]c(=S)[nH]c(-c2ccccc2)c1CCO
[5]
  T/C: 97 % of control
[6]
  T/C: 101 % of control
[7]
  T/C: 91 % of control

## CCSCCCO
endpoint: mean survival time, dose: 75.0 mg/kg/injection, schedule: Q04DX003 (ip), vehicle: saline
  T/C: 95 % of control
endpoint: mean survival time, dose: 150.0 mg/kg/injection, schedule: Q04DX003 (ip), vehicle: saline
  T/C: 97 % of control
endpoint: mean survival time, dose: 300.0 mg/kg/injection, schedule: Q04DX003 (ip), vehicle: saline
  T/C: 103 % of control

## NC1CC(CO)C(O)C1O (stereo not given)
[3]
  T/C: 101 % of control
[4]
  T/C: 103 % of control
endpoint: mean survival time, dose: 300.0 mg/kg/injection, schedule: Q01DX001 (ip), vehicle: saline
  T/C: 107 % of control

## COC(=O)C1OC([n+]2ccccc2)C(OC(C)=O)C(OC(C)=O)C1OC(C)=O (stereo not given)
endpoint: median survival time, dose: 12.5 mg/kg/injection, schedule: Q01DX005 (ip), vehicle: saline
  T/C: 103 % of control
endpoint: median survival time, dose: 25.0 mg/kg/injection, schedule: Q01DX005 (ip), vehicle: saline
  T/C: 107 % of control
endpoint: median survival time, dose: 50.0 mg/kg/injection, schedule: Q01DX005 (ip), vehicle: saline
  T/C: 100 % of control
endpoint: median survival time, dose: 100.0 mg/kg/injection, schedule: Q01DX005 (ip), vehicle: saline
  T/C: 107 % of control
endpoint: median survival time, dose: 200.0 mg/kg/injection, schedule: Q01DX005 (ip), vehicle: saline
  T/C: 103 % of control

## COCc1c(C)c(C)c(COC)c(C)c1C
endpoint: mean survival time, dose: 50.0 mg/kg/injection, schedule: Q01DX009 (ip), vehicle: saline
  T/C: 95 % of control
endpoint: mean survival time, dose: 100.0 mg/kg/injection, schedule: Q01DX009 (ip), vehicle: saline
  T/C: 97 % of control
endpoint: mean survival time, dose: 200.0 mg/kg/injection, schedule: Q01DX009 (ip), vehicle: saline
  T/C: 88 % of control

## CCOC(=O)C(C(C)=O)c1cc(NS(=O)(=O)c2ccccc2)ccc1O (stereo not given)
[5]
  T/C: 114 % of control
[6]
  T/C: 103 % of control
[7]
  T/C: 105 % of control

## COc1cc2cc3c(c(O)c2c(O)c1/C=C/C(C)C)C(=O)CC(C)(OC(C)=O)C3 (stereo not given)
endpoint: median survival time, dose: 1.25 mg/kg/injection, schedule: Q01DX009 (ip), vehicle: Klucel (hydroxypropylcellulose) (HPC)
  T/C: 105 % of control
endpoint: median survival time, dose: 2.5 mg/kg/injection, schedule: Q01DX009 (ip), vehicle: Klucel (hydroxypropylcellulose) (HPC)
  T/C: 102 % of control
endpoint: median survival time, dose: 5.0 mg/kg/injection, schedule: Q01DX009 (ip), vehicle: Klucel (hydroxypropylcellulose) (HPC)
  T/C: 113 % of control
endpoint: median survival time, dose: 10.0 mg/kg/injection, schedule: Q01DX009 (ip), vehicle: Klucel (hydroxypropylcellulose) (HPC)
  T/C: 116 % of control and 121 % of control
endpoint: median survival time, dose: 20.0 mg/kg/injection, schedule: Q01DX009 (ip), vehicle: Klucel (hydroxypropylcellulose) (HPC)
  T/C: 98 % of control and 105 % of control

## O=C(c1ccccc1)C(C(O)CCl)C(O)(C(F)(F)F)C(F)(F)F (stereo not given)
[2]
  T/C: 94 % of control
[8]
  T/C: 94 % of control

## C=C1c2cccc(O)c2C(O)=C2C(=O)[C@]3(O)C(O)=C(C(N)=O)C(=O)[C@@H](N(C)C)[C@@H]3[C@@H](O)[C@H]12
endpoint: median survival time, dose: 12.5 mg/kg/injection, schedule: Q01DX009 (ip), vehicle: Klucel (hydroxypropylcellulose) (HPC)
  T/C: 96 % of control
endpoint: median survival time, dose: 25.0 mg/kg/injection, schedule: Q01DX009 (ip), vehicle: Klucel (hydroxypropylcellulose) (HPC)
  T/C: 104 % of control
endpoint: median survival time, dose: 50.0 mg/kg/injection, schedule: Q01DX009 (ip), vehicle: Klucel (hydroxypropylcellulose) (HPC)
  T/C: 107 % of control
endpoint: median survival time, dose: 100.0 mg/kg/injection, schedule: Q01DX009 (ip), vehicle: Klucel (hydroxypropylcellulose) (HPC)
  T/C: 114 % of control

## BrCC(Br)c1ccccc1 (stereo not given)
[5]
  T/C: 100 % of control
[6]
  T/C: 100 % of control
[7]
  T/C: 96 % of control

## CC(=O)OCC1OC(n2cc(F)c(=O)[nH]c2=O)CC1OC(C)=O (stereo not given)
endpoint: mean survival time, dose: 50.0 mg/kg/injection, schedule: Q01DX009 (ip), vehicle: other
  T/C: 123 % of control
endpoint: mean survival time, dose: 100.0 mg/kg/injection, schedule: Q01DX001 (ip), vehicle: other
  T/C: 93 % of control
endpoint: mean survival time, dose: 200.0 mg/kg/injection, schedule: Q01DX001 (ip), vehicle: other
  T/C: 110 % of control
endpoint: mean survival time, dose: 200.0 mg/kg/injection, schedule: Q01DX009 (ip), vehicle: other
  T/C: 117 % of control
endpoint: mean survival time, dose: 400.0 mg/kg/injection, schedule: Q01DX001 (ip), vehicle: other
  T/C: 102 % of control
endpoint: mean survival time, dose: 800.0 mg/kg/injection, schedule: Q01DX001 (ip), vehicle: other
  T/C: 119 % of control

## NCCCCS(=O)(=O)Nc1ccc(Nc2c3ccccc3nc3cc([N+](=O)[O-])ccc23)cc1
[1]
  T/C: 158 % of control
[2]
  T/C: 172 % of control
[5]
  T/C: 157 % of control
endpoint: mean survival time, dose: 300.0 mg/kg/injection, schedule: Q04DX003 (ip), vehicle: saline with Tween-80
  T/C: 159 % of control
endpoint: mean survival time, dose: 400.0 mg/kg/injection, schedule: Q04DX003 (ip), vehicle: saline
  T/C: 151 % of control

## CCCCCCCCC(Sc1n[nH]c(=O)[nH]c1=O)C(=O)OCC (stereo not given)
endpoint: mean survival time, dose: 12.5 mg/kg/injection, schedule: Q01DX005 (ip), vehicle: distilled water + Tween-80
  T/C: 101 % of control
endpoint: mean survival time, dose: 25.0 mg/kg/injection, schedule: Q01DX005 (ip), vehicle: distilled water + Tween-80
  T/C: 95 % of control
endpoint: mean survival time, dose: 50.0 mg/kg/injection, schedule: Q01DX005 (ip), vehicle: distilled water + Tween-80
  T/C: 95 % of control
endpoint: mean survival time, dose: 100.0 mg/kg/injection, schedule: Q01DX005 (ip), vehicle: distilled water + Tween-80
  T/C: 100 % of control
endpoint: mean survival time, dose: 200.0 mg/kg/injection, schedule: Q01DX005 (ip), vehicle: distilled water + Tween-80
  T/C: 95 % of control

## O=C(Oc1ccccc1)c1ccccc1O
[9]
  T/C: 105 % of control
[1]
  T/C: 109 % of control
endpoint: mean survival time, dose: 100.0 mg/kg/injection, schedule: Q01DX001 (ip), vehicle: saline with Tween-80
  T/C: 101 % of control
[2]
  T/C: 105 % of control
endpoint: mean survival time, dose: 200.0 mg/kg/injection, schedule: Q01DX001 (ip), vehicle: saline with Tween-80
  T/C: 89 % of control
endpoint: mean survival time, dose: 400.0 mg/kg/injection, schedule: Q01DX001 (ip), vehicle: saline with Tween-80
  T/C: 95 % of control

## Nc1ncnc2c(C3OC(CO)C(O)C3O)c[nH]c12 (stereo not given)
endpoint: median survival time, dose: 0.05 mg/kg/injection, schedule: Q01DX005 (ip), vehicle: saline
  T/C: 114 % of control and 121 % of control
endpoint: median survival time, dose: 0.1 mg/kg/injection, schedule: Q01DX005 (ip), vehicle: saline
  T/C: 116 % of control and 123 % of control
endpoint: median survival time, dose: 0.4 mg/kg/injection, schedule: Q01DX005 (ip), vehicle: saline
  T/C: 115 % of control
endpoint: median survival time, dose: 0.8 mg/kg/injection, schedule: Q01DX005 (ip), vehicle: saline
  T/C: 102 % of control and 104 % of control

## CCCCC#CCOCC(O)CCl (stereo not given)
endpoint: mean survival time, dose: 25.0 mg/kg/injection, schedule: Q01DX009 (ip), vehicle: water
  T/C: 95 % of control
endpoint: mean survival time, dose: 50.0 mg/kg/injection, schedule: Q01DX009 (ip), vehicle: water
  T/C: 107 % of control
endpoint: mean survival time, dose: 100.0 mg/kg/injection, schedule: Q01DX009 (ip), vehicle: water
  T/C: 103 % of control
endpoint: mean survival time, dose: 200.0 mg/kg/injection, schedule: Q01DX009 (ip), vehicle: water
  T/C: 100 % of control

## COc1cc(Cl)ccc1NC(=O)N1CCN(c2ccccc2)CC1
endpoint: mean survival time, dose: 12.5 mg/kg/injection, schedule: Q01DX009 (ip), vehicle: saline with Tween-80
  T/C: 96 % of control
[9]
  T/C: 96 % of control
[1]
  T/C: 92 % of control and 93 % of control
[8]
  T/C: 86 % of control

## C1=CC2c3ccccc3C1C1C=CC21 (stereo not given)
[2]
  T/C: 95 % of control
[5]
  T/C: 91 % of control
[8]
  T/C: 108 % of control
[6]
  T/C: 93 % of control
endpoint: mean survival time, dose: 400.0 mg/kg/injection, schedule: Q01DX009 (ip), vehicle: saline with Tween-80
  T/C: 93 % of control
[7]
  T/C: 93 % of control

## COc1cc2cccc(OC)c(=O)c2c(O)c1OC
[10]
  T/C: 98 % of control
[11]
  T/C: 101 % of control
[12]
  T/C: 101 % of control

## O=C1OCC2C(=O)OCC12 (stereo not given)
endpoint: mean survival time, dose: 50.0 mg/kg/injection, schedule: Q01DX001 (ip), vehicle: saline
  T/C: 107 % of control
[10]
  T/C: 101 % of control
[11]
  T/C: 107 % of control
[12]
  T/C: 109 % of control

## Cc1nc(SCc2ccccc2)[nH]c(=O)c1CCO
[5]
  T/C: 96 % of control
[6]
  T/C: 96 % of control
